From US20150141435A1, “2-PYRIDONE ANTIMICROBIAL COMPOSITIONS” (Emergent BioSolutions, priority 2010, published 2015) come the findings set out here.

In brackets after ≈: the same amount, converted by molar mass. Where a name gives a salt, the structure may show the parent alone. Read-outs that look alike come from different tables or passages of the source.

Common to all, as to assay type: cell-based
One assay has as its system Yersinia pestis C092. The experiment in a line: microbe, parasite or virus in culture.
The subject of assay [1] is Brucella abortus ATCC 23448. The experiment in a line: microbe, parasite or virus in culture. Conditions: ATCC23448.
For assay [2], the system named is Bacillus anthracis Ames strain. Briefly: microbe, parasite or virus in culture.
The test system of the next assay is P. aeruginosa ATCC 27853. Briefly: MIC, CLSI broth microdilution (Table 2). To be noted: Pseudomonas aeruginosa. (Broth dilution looks for growth in wells or tubes with falling amounts of substance.)
The subject of assay [3] is Francisella tularensis Schu S4. The experiment in a line: microbe, parasite or virus in culture. Conditions: SCHUS4.
The subject of a further assay is A. baumannii ATCC 19606. The experiment in a line: MIC, CLSI broth microdilution (Table 2). To be noted: Acinetobacter baumannii.
The subject of a further assay is S. aureus ATCC 25923. The experiment in a line: MIC, CLSI broth microdilution (Table 1). To be noted: Staphylococcus aureus.
A further assay concerns E. coli ATCC 25922. Briefly: MIC, CLSI broth microdilution (Table 2). To be noted: Escherichia coli.
A further assay deals with H. influenzae ATCC 49247. Briefly: MIC, CLSI broth microdilution (Table 2). Conditions: Haemophilus influenzae.
The next assay has as its system E. faecalis ATCC 29212. The experiment in a line: MIC, CLSI broth microdilution (Table 1). To be noted: Enterococcus faecalis.
Another assay has as its system E. faecium ATCC 19434. The experiment in a line: MIC, CLSI broth microdilution (Table 1). To be noted: Enterococcus faecium.
The test system of assay [4] is S. aureus ATCC 43300 (MRSA, FQ-S). Briefly: MIC, CLSI broth microdilution (Table 1). Conditions: Staphylococcus aureus, read-out: MIC S. aureus ATCC 43300 (MRSA, FQ-S).
Assay [5] deals with Burkholderia mallei ATCC 23344. The experiment in a line: microbe, parasite or virus in culture. Conditions: ATCC23344.
Assay [6] deals with S. maltophilia ATCC 17677. Briefly: MIC, CLSI broth microdilution (Table 2). To be noted: Stenotrophomonas maltophilia.
The next assay has as its system K. pneumoniae ATCC 33495. Briefly: MIC, CLSI broth microdilution (Table 2). Conditions: Klebsiella pneumoniae.
Assay [7] concerns S. aureus BAA-1720 (MRSA, FQ-R). Briefly: MIC, CLSI broth microdilution (Table 1). To be noted: Staphylococcus aureus, read-out: MIC S. aureus BAA-1720 (MRSA, FQ-R).
The test system of assay [8] is Burkholderia pseudomallei ATCC 23343. Briefly: microbe, parasite or virus in culture. To be noted: ATCC23343.
The next assay concerns S. pneumonia ATCC 49619. The experiment in a line: MIC, CLSI broth microdilution (Table 1). Conditions: Streptococcus pneumoniae.
In assay [9] the test system is Burkholderia cepacia (5 strains). Briefly: MIC range, broader panel incl. clinical isolates (Table 4).
Assay [10] has as its system Staphylococcus aureus (16 strains). Briefly: MIC range, broader panel incl. clinical isolates (Table 3).
The mark [11] stands for this setting: ATCC27853, read-out: MIC P. aeruginosa ATCC 27853.
[12] abbreviates: ATCC19606, read-out: MIC A. baumannii B. ATCC 19606.
[13] abbreviates: ATCC25923, read-out: MIC S. aureus ATCC 25923.
[14] abbreviates: ATCC25922, read-out: MIC E. coli ATCC 25922.
Setting [15] is: ATCC49247, read-out: MIC H. influenzae ATCC 49247.
[16] abbreviates: ATCC29212, read-out: MIC E. faecalis ATCC 29212.
[17] abbreviates: ATCC19434, read-out: MIC E. faecium ATCC 19434.
Where [18] appears, read: ATCC17677, read-out: MIC S. maltophilia ATCC 17677.
The mark [19] stands for this setting: ATCC33495, read-out: MIC K. pneumoniae ATCC 33495.
Setting [20] is: ATCC49619, read-out: MIC S. pneumonia ATCC 49619.
The mark [21] stands for this setting: ATCC19606, Gram negative, MHB, 37° C., 16-20 hours, read-out: MIC A. baumannii B. ATCC 19606.
Setting [22] is: ATCC25922, Gram negative, MHB, 37° C., 16-20 hours, read-out: MIC E. coli ATCC 25922.
Setting [23] is: ATCC49247, Gram negative, MHB, 37° C., 16-20 hours, read-out: MIC H. influenzae ATCC 49247.
[24] abbreviates: ATCC19434, Gram positive, MHB, 37° C., 16-20 hours, read-out: MIC E. faecium ATCC 19434.
[25] abbreviates: ATCC17677, Gram negative, MHB, 37° C., 16-20 hours, read-out: MIC S. maltophilia ATCC 17677.
The mark [26] stands for this setting: ATCC33495, Gram negative, MHB, 37° C., 16-20 hours, read-out: MIC K. pneumoniae ATCC 33495.
[27] abbreviates: Gram positive, MHB, 37° C., 16-20 hours.
The mark [28] stands for this setting: ATCC49619, Gram positive, MHB, 37° C., 16-20 hours, read-out: MIC S. pneumonia ATCC 49619.
[29] abbreviates: ATCC27853, Gram negative, MHB, 37° C., 16-20 hours, read-out: MIC P. aeruginosa ATCC 27853.
The mark [30] stands for this setting: ATCC25923, Gram positive, MHB, 37° C., 16-20 hours, read-out: MIC S. aureus ATCC 25923.
Setting [31] is: ATCC29212, Gram positive, MHB, 37° C., 16-20 hours, read-out: MIC E. faecalis ATCC 29212.

Take `Cc1c(-c2ccc(CN)cc2)ccn2c(=O)c(C(=O)O)cc(C3CC3)c12` [Example 31 K salt, 8-(4-(aminomethyl)-phenyl)-1-cyclopropyl-9-methyl-4-oxo-4H-quinolizine-3-carboxylic acid]: the MIC in the assay on Yersinia pestis C092 is 0.25 µg/mL; in assay [1], 0.25 µg/mL; in assay [2] it was 0.016 to 0.031 µg/mL; in the assay on P. aeruginosa ATCC 27853 (setting [11]), 1 µg/mL; in [3] it was 0.125 to 0.5 µg/mL; with A. baumannii ATCC 19606 (setting [12]), 0.25 µg/mL. For the same molecule, the MIC in the assay on S. aureus ATCC 25923 (setting [13]) worked out at 0.064 µg/mL; with E. coli ATCC 25922 (setting [14]), 0.032 µg/mL; in the assay on H. influenzae ATCC 49247 (setting [15]) it was 0.016 µg/mL; with E. faecalis ATCC 29212 (setting [16]), 0.25 µg/mL; in the assay on E. faecium ATCC 19434 (setting [17]) it was 2 µg/mL; in assay [4], 0.032 µg/mL. In addition, the MIC in [5] is 0.5 to 1 µg/mL; in assay [6] (setting [18]), 0.125 µg/mL; in the assay on K. pneumoniae ATCC 33495 (setting [19]), 0.125 to 0.25 µg/mL; in assay [7] it was 1 µg/mL; in assay [8], 1 µg/mL; with S. pneumonia ATCC 49619 (setting [20]), 0.125 µg/mL.
As to `Cc1c(C2=CCNCC2)ccn2c(=O)c(C(=O)O)cc(C3CC3)c12` [Example 42, 1-cyclopropyl-9-methyl-4-oxo-8-(1,2,3,6-tetrahydropyridin-4-yl)-4H-quinolizine-3-carboxylic acid], the MIC was 0.5 to 1 µg/mL (≈ 1.54 to 3.08 µM) with Yersinia pestis C092; 0.25 µg/mL (≈ 0.771 µM) in assay [2]; 0.25 to 0.5 µg/mL (≈ 0.771 to 1.54 µM) in assay [3]; 2 µg/mL (≈ 6.17 µM) with A. baumannii ATCC 19606 (setting [21]); 0.064 µg/mL (≈ 0.197 µM) in the assay on E. coli ATCC 25922 (setting [22]); 0.064 µg/mL (≈ 0.197 µM) in the assay with H. influenzae ATCC 49247 (setting [23]). Also, the MIC was above 8 µg/mL in the assay with E. faecium ATCC 19434 (setting [24]); 2 µg/mL (≈ 6.17 µM) in [5]; 1 µg/mL (≈ 3.08 µM) in assay [6] (setting [25]); 0.125 µg/mL (≈ 0.385 µM) in the assay with K. pneumoniae ATCC 33495 (setting [26]); above 8 µg/mL in assay [7] (setting [27]); 4 µg/mL (≈ 12.3 µM) in assay [8]. The MIC in the assay on S. pneumonia ATCC 49619 (setting [28]) was 2 µg/mL (≈ 6.17 µM). Further, the “MIC Range High, Burkholderia cepacia (5 strains)” value in [9] (High of 5 strains) was 2 µg/mL (≈ 6.17 µM). Besides, the “MIC Range Low, Burkholderia cepacia (5 strains)” value in assay [9] (Low of 5 strains) was found to be 2 µg/mL (≈ 6.17 µM). For the same molecule, the “MIC Range Median, Burkholderia cepacia (5 strains)” value in [9] (Median of 5 strains) was 2 µg/mL (≈ 6.17 µM). The “MIC Range High, Staphylococcus aureus (16 strains)” value in assay [10] (High of 16 strains) was 32 µg/mL (≈ 98.6 µM). Besides, the “MIC Range Low, Staphylococcus aureus (16 strains)” value in assay [10] (Low of 16 strains) came to 0.5 µg/mL (≈ 1.54 µM). The “MIC Range Median, Staphylococcus aureus (16 strains)” value in assay [10] (Median of 16 strains) amounted to 16.25 µg/mL (≈ 50.1 µM).
For `Cc1c(-c2ccc(Cl)cc2)ccn2c(=O)c(C(=O)O)cc(C3CC3)c12` [Example 45 K salt, 1-cyclopropyl-8-(4-chloro-phenyl)-9-methyl-4-oxo-4H-quinolizine-3-carboxylic acid], the MIC in the assay on Yersinia pestis C092 is 0.031 µg/mL; in assay [1], 0.031 µg/mL; in assay [2] it was 0.016 µg/mL; with P. aeruginosa ATCC 27853 (setting [29]) it was 2 µg/mL; in assay [3], 0.008 to 0.016 µg/mL; in the assay on A. baumannii ATCC 19606 (setting [21]), 0.25 µg/mL. Further, the MIC with S. aureus ATCC 25923 (setting [30]) is 0.016 to 0.032 µg/mL; with E. coli ATCC 25922 (setting [22]), 0.25 µg/mL; in the assay with H. influenzae ATCC 49247 (setting [23]), 0.016 µg/mL; in the assay with E. faecalis ATCC 29212 (setting [31]), 0.064 µg/mL; in the assay with E. faecium ATCC 19434 (setting [24]), 0.5 to 1 µg/mL; in assay [4] (setting [27]), 0.016 µg/mL. Besides, the MIC in assay [5] was 0.063 to 0.125 µg/mL; in assay [6] (setting [25]), 0.25 µg/mL; with K. pneumoniae ATCC 33495 (setting [26]), 0.5 to 1 µg/mL; in assay [7] (setting [27]) it was 0.5 µg/mL; in assay [8], 0.063 to 0.125 µg/mL; in the assay with S. pneumonia ATCC 49619 (setting [28]), 0.25 µg/mL.
With `Cc1c(-c2ccc(O)cc2)ccn2c(=O)c(C(=O)O)cc(C3CC3)c12` [Example 46 K salt, 1-cyclopropyl-8-(4-hydroxy-phenyl)-9-methyl-4-oxo-4H-quinolizine-3-carboxylic acid], the MIC is 0.008 to 0.016 µg/mL in the assay with Yersinia pestis C092; 0.031 µg/mL in assay [1]; 0.004 µg/mL in assay [2]; 1 to 2 µg/mL in the assay on P. aeruginosa ATCC 27853 (setting [11]); 0.016 µg/mL in [3]; 0.064 µg/mL in the assay with A. baumannii ATCC 19606 (setting [12]). Further, the MIC was at most 0.004 µg/mL in the assay with S. aureus ATCC 25923 (setting [13]); 0.032 µg/mL in the assay with E. coli ATCC 25922 (setting [14]); at most 0.004 µg/mL in the assay with H. influenzae ATCC 49247 (setting [15]); 0.016 µg/mL in the assay with E. faecalis ATCC 29212 (setting [16]); 0.25 µg/mL with E. faecium ATCC 19434 (setting [17]); at most 0.004 µg/mL in [4]. In addition, the MIC came out at 0.063 µg/mL in assay [5]; 0.125 µg/mL in assay [6] (setting [18]); 0.064 µg/mL with K. pneumoniae ATCC 33495 (setting [19]); 0.125 µg/mL in [7]; 0.063 µg/mL in assay [8]; 0.032 µg/mL in the assay on S. pneumonia ATCC 49619 (setting [20]).
On to `Cc1c(-c2ccc(CO)cc2)ccn2c(=O)c(C(=O)O)cc(C3CC3)c12` [Example 48 K salt, 1-cyclopropyl-8-(4-hydroxy-methyl-phenyl)-9-methyl-4-oxo-4H-quinolizine-3-carboxylic acid], for which the MIC against Yersinia pestis C092 was found to be 0.031 µg/mL; in assay [1], 0.031 µg/mL; in assay [2], 0.008 µg/mL; with P. aeruginosa ATCC 27853 (setting [29]) it was 2 µg/mL; in [3], 0.016 µg/mL; in the assay on A. baumannii ATCC 19606 (setting [12]) it was 0.125 µg/mL. The MIC in the assay on S. aureus ATCC 25923 (setting [30]) was 0.008 to 0.016 µg/mL; in the assay with E. coli ATCC 25922 (setting [22]), 0.064 µg/mL; in the assay with H. influenzae ATCC 49247 (setting [23]), at most 0.004 µg/mL; with E. faecalis ATCC 29212 (setting [31]) it was 0.032 to 0.064 µg/mL; with E. faecium ATCC 19434 (setting [24]), 1 µg/mL; in assay [4] (setting [27]), 0.008 µg/mL. The MIC is 0.125 µg/mL in assay [5]; 0.25 µg/mL in [6] (setting [25]); 0.25 µg/mL in the assay with K. pneumoniae ATCC 33495 (setting [26]); 0.5 µg/mL in assay [7] (setting [27]); 0.125 µg/mL in assay [8]; 0.125 µg/mL in the assay with S. pneumonia ATCC 49619 (setting [20]).
